Converted amounts (≈) assume the structure as drawn.
Experiments:
Format in all cases: functional
Prevotella salivae = test: Antimicrobial activity in Prevotella salivae by CLSI agar dilution method; settings: Segatella salivae
[1] = system: Prevotella melaninogenica; test: Antimicrobial activity in Prevotella melaninogenica by CLSI agar dilution method
Prevotella bivia = test: Antimicrobial activity in Prevotella bivia by CLSI agar dilution method
Clostridium butyricum = test: Antimicrobial activity in Clostridium butyricum by CLSI agar dilution method
Tissierella praeacuta = test: Antimicrobial activity in Clostridium hastiforme by CLSI agar dilution method
Thomasclavelia ramosa = test: Antimicrobial activity in Clostridium ramosum by CLSI agar dilution method
Bacteroides fragilis = test: Antimicrobial activity in Bacteroides fragilis by CLSI agar dilution method
Finegoldia magna = test: Antimicrobial activity in Finegoldia magna by CLSI agar dilution method
Fusobacterium mortiferum = test: Antimicrobial activity in Fusobacterium mortiferum by CLSI agar dilution method
Fusobacterium varium = test: Antimicrobial activity in Fusobacterium varium by CLSI agar dilution method
Bacteroides uniformis = test: Antimicrobial activity in Bacteroides uniformis by CLSI agar dilution method
Clostridium perfringens = test: Antimicrobial activity in Clostridium perfringens by CLSI agar dilution method
Cutibacterium acnes = test: Antimicrobial activity in Propionibacterium acnes by CLSI agar dilution method
Bacteroides stercoris = test: Antimicrobial activity in Bacteroides stercoris by CLSI agar dilution method
Clostridium tertium = test: Antimicrobial activity in Clostridium tertium by CLSI agar dilution method
Prevotella baroniae = test: Antimicrobial activity in Prevotella baroniae by CLSI agar dilution method; settings: Segatella baroniae
[2] = system: Porphyromonas asaccharolytica; test: Antimicrobial activity in Porphyromonas asaccharolytica by CLSI agar dilution method
Prevotella veroralis = test: Antimicrobial activity in Prevotella veroralis by CLSI agar dilution method
Bifidobacterium = test: Antimicrobial activity in Bifidobacterium by CLSI agar dilution method
[3] = system: Paeniclostridium sordellii; test: Antimicrobial activity in Clostridium sordellii by CLSI agar dilution method; settings: Paraclostridium sordellii
Prevotella corporis = test: Antimicrobial activity in Prevotella corporis by CLSI agar dilution method
Clostridium sp. = test: Antimicrobial activity in Clostridium sp. by CLSI agar dilution method
Prevotella intermedia = test: Antimicrobial activity in Prevotella intermedia by CLSI agar dilution method
Prevotella bergensis = test: Antimicrobial activity in Prevotella bergensis by CLSI agar dilution method; settings: Hallella bergensis
Bacteroides ovatus = test: Antimicrobial activity in Bacteroides ovatus by CLSI agar dilution method
Prevotella nigrescens = test: Antimicrobial activity in Prevotella nigrescens by CLSI agar dilution method
Clostridioides difficile = test: Antimicrobial activity in Clostridium difficile by CLSI agar dilution method
[4] = system: Enterocloster clostridioformis; test: Antimicrobial activity in Clostridium clostridioforme by CLSI agar dilution method
Eggerthella lenta = test: Antimicrobial activity in Eggerthella lenta by CLSI agar dilution method
[5] = system: Paraclostridium bifermentans; test: Antimicrobial activity in Clostridium bifermentans by CLSI agar dilution method
Anaerococcus prevotii = test: Antimicrobial activity in Anaerococcus prevotii by CLSI agar dilution method
Parvimonas micra = test: Antimicrobial activity in Micromonas micros by CLSI agar dilution method
Fusobacterium nucleatum = test: Antimicrobial activity in Fusobacterium nucleatum by CLSI agar dilution method
Phocaeicola vulgatus = test: Antimicrobial activity in Bacteroides vulgatus by CLSI agar dilution method
Porphyromonas gingivalis = test: Antimicrobial activity in Porphyromonas gingivalis by CLSI agar dilution method
Prevotella sp. = test: Antimicrobial activity in Prevotella sp.by CLSI agar dilution method
[6] = system: Fusobacterium necrophorum; test: Antimicrobial activity in Fusobacterium necrophorum by CLSI agar dilution method
[Clostridium] innocuum = Antimicrobial activity in Clostridium innocuum by CLSI agar dilution method
[7] = system: Peptoniphilus asaccharolyticus; test: Antimicrobial activity in Peptoniphilus asaccharolyticus by CLSI agar dilution method
Anaerococcus tetradius = test: Antimicrobial activity in Anaerococcus tetradius by CLSI agar dilution method
Clostridium cadaveris = test: Antimicrobial activity in Clostridium cadaveris by CLSI agar dilution method
Hoylesella oralis = test: Antimicrobial activity in Prevotella oralis group by CLSI agar dilution method
Actinomyces = test: Antimicrobial activity in Actinomyces by CLSI agar dilution method
Lactobacillus = test: Antimicrobial activity in Lactobacillus by CLSI agar dilution method
Prevotella denticola = test: Antimicrobial activity in Prevotella denticola by CLSI agar dilution method
Prevotella disiens = test: Antimicrobial activity in Prevotella disiens by CLSI agar dilution method
Prevotella buccae = test: Antimicrobial activity in Prevotella buccae by CLSI agar dilution method; settings: Segatella buccae
[8] = system: Peptostreptococcus anaerobius; test: Antimicrobial activity in Peptostreptococcus anaerobius by CLSI agar dilution method
Hoylesella loescheii = test: Antimicrobial activity in Prevotella loescheii by CLSI agar dilution method
[9] = system: Parabacteroides distasonis; test: Antimicrobial activity in Bacteroides distasonis by CLSI agar dilution method
[10] = system: Bacteroides thetaiotaomicron; test: Antimicrobial activity in Bacteroides thetaiotaomicron by CLSI agar dilution method

Work on Cc1ncc([N+](=O)[O-])n1CCO [METRONIDAZOLE] yielded an MIC (Prevotella salivae) of at most 0.125 µg/mL, an MIC50 [1] of 0.5 µg/mL (≈ 2.92 µM) and an MIC90 [1] of 1 µg/mL (≈ 5.84 µM). For the same compound, the MIC50 (Prevotella bivia) was 2 µg/mL (≈ 11.7 µM), the MIC90 (Prevotella bivia) was 4 µg/mL (≈ 23.4 µM) and the MIC (Clostridium butyricum) was at most 0.125 µg/mL. The MIC (Tissierella praeacuta) was 0.25 µg/mL (≈ 1.46 µM), the MIC (Thomasclavelia ramosa) was 1 µg/mL (≈ 5.84 µM) and the MIC50 (Bacteroides fragilis) was 1 µg/mL (≈ 5.84 µM). For the same compound, the MIC90 (Bacteroides fragilis) was 1 µg/mL (≈ 5.84 µM), the MIC50 (Finegoldia magna) was 0.5 µg/mL (≈ 2.92 µM) and the MIC90 (Finegoldia magna) was 1 µg/mL (≈ 5.84 µM). The MIC50 (Fusobacterium mortiferum) was 0.25 µg/mL (≈ 1.46 µM), the MIC90 (Fusobacterium mortiferum) was 0.5 µg/mL (≈ 2.92 µM) and the MIC50 (Fusobacterium varium) was 0.25 µg/mL (≈ 1.46 µM). The MIC90 (Fusobacterium varium) was 0.5 µg/mL (≈ 2.92 µM), the MIC (Bacteroides uniformis) was 0.5 µg/mL (≈ 2.92 µM) and the MIC50 (Bacteroides uniformis) was 0.5 µg/mL (≈ 2.92 µM). For the same compound, the MIC50 (Clostridium perfringens) was 1 µg/mL (≈ 5.84 µM), the MIC90 (Clostridium perfringens) was 1 µg/mL (≈ 5.84 µM) and the MIC (Cutibacterium acnes) was over 16 µg/mL. The MIC50 (Cutibacterium acnes) was over 16 µg/mL, the MIC90 (Cutibacterium acnes) was over 16 µg/mL and the MIC (Bacteroides stercoris) was 1 µg/mL (≈ 5.84 µM). It also gave an MIC50 (Bacteroides stercoris) of 1 µg/mL (≈ 5.84 µM), an MIC (Clostridium tertium) of 0.5 µg/mL (≈ 2.92 µM) and an MIC50 (Clostridium tertium) of 1 µg/mL (≈ 5.84 µM). The MIC (Prevotella baroniae) was 0.5 µg/mL (≈ 2.92 µM), the MIC [2] was at most 0.125 µg/mL and the MIC (Prevotella veroralis) was 0.25 µg/mL (≈ 1.46 µM). For the same compound, the MIC50 (Bifidobacterium) was over 16 µg/mL, the MIC90 (Bifidobacterium) was over 16 µg/mL and the MIC [3] was 1 µg/mL (≈ 5.84 µM). For the same compound, the MIC (Prevotella corporis) was at most 0.125 µg/mL, the MIC50 (Prevotella corporis) was 0.5 µg/mL (≈ 2.92 µM) and the MIC50 (Clostridium sp.) was 1 µg/mL (≈ 5.84 µM). The MIC90 (Clostridium sp.) was 1 µg/mL (≈ 5.84 µM), the MIC50 (Prevotella intermedia) was 0.5 µg/mL (≈ 2.92 µM) and the MIC90 (Prevotella intermedia) was 1 µg/mL (≈ 5.84 µM). It also gave an MIC (Prevotella bergensis) of 0.5 µg/mL (≈ 2.92 µM), an MIC50 (Bacteroides ovatus) of 1 µg/mL (≈ 5.84 µM) and an MIC90 (Bacteroides ovatus) of 1 µg/mL (≈ 5.84 µM). For the same compound, the MIC50 (Prevotella nigrescens) was 0.5 µg/mL (≈ 2.92 µM), the MIC90 (Prevotella nigrescens) was 1 µg/mL (≈ 5.84 µM) and the MIC50 (Clostridioides difficile) was 0.5 µg/mL (≈ 2.92 µM). The MIC90 (Clostridioides difficile) was 0.5 µg/mL (≈ 2.92 µM), the MIC [4] was at most 0.125 µg/mL and the MIC50 (Eggerthella lenta) was 0.5 µg/mL (≈ 2.92 µM). The MIC90 (Eggerthella lenta) was 0.5 µg/mL (≈ 2.92 µM), the MIC [5] was 0.25 µg/mL (≈ 1.46 µM) and the MIC (Anaerococcus prevotii) was 1 µg/mL (≈ 5.84 µM). The MIC50 (Parvimonas micra) was 0.25 µg/mL (≈ 1.46 µM), the MIC90 (Parvimonas micra) was 0.5 µg/mL (≈ 2.92 µM) and the MIC (Fusobacterium nucleatum) was at most 0.125 µg/mL. It also gave an MIC50 (Fusobacterium nucleatum) of at most 0.125 µg/mL, an MIC90 (Fusobacterium nucleatum) of 0.5 µg/mL (≈ 2.92 µM) and an MIC50 (Phocaeicola vulgatus) of 0.5 µg/mL (≈ 2.92 µM). For the same compound, the MIC90 (Phocaeicola vulgatus) was 1 µg/mL (≈ 5.84 µM), the MIC (Porphyromonas gingivalis) was at most 0.125 µg/mL and the MIC (Prevotella sp.) was 0.5 µg/mL (≈ 2.92 µM). It also gave an MIC [6] of at most 0.125 µg/mL, an MIC50 [6] of 0.25 µg/mL (≈ 1.46 µM) and an MIC ([Clostridium] innocuum) of at most 0.125 µg/mL. The MIC [7] was at most 0.125 µg/mL, the MIC50 [7] was 1 µg/mL (≈ 5.84 µM) and the MIC50 (Anaerococcus tetradius) was 1 µg/mL (≈ 5.84 µM). It also gave an MIC90 (Anaerococcus tetradius) of 1 µg/mL (≈ 5.84 µM), an MIC (Clostridium cadaveris) of at most 0.125 µg/mL and an MIC (Hoylesella oralis) of at most 0.125 µg/mL. The MIC (Actinomyces) was over 1 µg/mL, the MIC50 (Actinomyces) was over 16 µg/mL and the MIC (Lactobacillus) was over 16 µg/mL. The MIC50 (Lactobacillus) was over 16 µg/mL, the MIC90 (Lactobacillus) was 16 µg/mL (≈ 93.5 µM) and the MIC50 (Prevotella denticola) was 0.5 µg/mL (≈ 2.92 µM). For the same compound, the MIC90 (Prevotella denticola) was 1 µg/mL (≈ 5.84 µM), the MIC (Prevotella disiens) was 1 µg/mL (≈ 5.84 µM) and the MIC50 (Prevotella disiens) was 1 µg/mL (≈ 5.84 µM). It also gave an MIC50 (Prevotella buccae) of 1 µg/mL (≈ 5.84 µM), an MIC90 (Prevotella buccae) of 2 µg/mL (≈ 11.7 µM) and an MIC50 [8] of 0.5 µg/mL (≈ 2.92 µM). It also gave an MIC90 [8] of 1 µg/mL (≈ 5.84 µM), an MIC (Hoylesella loescheii) of 0.5 µg/mL (≈ 2.92 µM) and an MIC50 [9] of 1 µg/mL (≈ 5.84 µM). It also gave an MIC90 [9] of 1 µg/mL (≈ 5.84 µM), an MIC [10] of 1 µg/mL (≈ 5.84 µM) and an MIC50 [10] of 1 µg/mL (≈ 5.84 µM). The MIC90 [10] was 2 µg/mL (≈ 11.7 µM).

Source: ChEMBL document CHEMBL1649156, “Antianaerobic activity of sulopenem compared to six other agents” (2009)
